From patent US10538443B2, “Method of degradation and inactivation of antibiotics in water by immobilized enzymes onto functionalized supports” (Luxembourg Institute of Science and Technology (LIST), priority 2014, dated 2020) come the findings set out here.

One series has as its target T1, NDM-1 (Klebsiella pneumoniae, UniProt C7C422).
T1 construct: His tag (inferred from the HisTrap FF purification and the pOPINF vector; no tag is printed as such); made in house; host or cells: Escherichia coli BL21 2D3
The class given is biochemical, K. pneumoniae. Particulars: free NDM-1 300 μg·ml^−1, antibiotic 100 μg·ml^−1, final volume 1 mL, deionized water, HEPES 12.5 mM, room temperature, 100 rpm. The method, then:
The production of protein performed as described by Green V. L. et al. (Acta Crystallogr. 2011, F67, 1160-1164) with few modifications: An additional step of freezing is added before cell lysis with French press. The NDM-1 isolation and purification are only performed with HisTrap FF column (GE Healthcare). Three washes in Amicon® Ultra-4 Centrifugal Filter Units 3,000 NMWL (1000×g for 15 min) allow to remove excess imidazole. Enzymes are then re-suspended in PBS.
(§1) Degradation experiments have been performed, using a concentration of free NDM-1 enzyme of 300 μg·ml^−1 in an aqueous medium comprising deionized water and HEPES 12.5 mM. Antibiotic is added at final concentration of 100 μg·ml^−1 (final volume: 1 mL). Degradation assay are performed under agitation of 100 rpm at room temperature during 1 hour. UV absorbance measurements are achieved to determine the evolution of the concentration of the antibiotics in the medium.

The nature of series [1]: Autolysis of antibiotic after 1 hour. The class given is physicochemical. As to conditions: antibiotic 100 μg·ml^−1, deionized water, HEPES 12.5 mM, room temperature. The method, then: as §1
Series [2] has as its system Selenastrum capricornutum. Description: Acute toxicity test on microalgae (ISO 8692: 2012), growth inhibition. The class given is cell-based. Particulars: 90 μg·mL^−1. How it is done: (§2) For this, the tests were carried out on the degradation media before (T0) and after metabolization by enzymes immobilized on PGMA and DOPA functionalized Kaldnes after 30 min, 1 h and 24 h of contact.
(§3) The tests are performed with the maximum volume of test solution that can be provided and defined by the standards cited earlier. The results are expressed as a percentage of growth inhibition for algae and Daphnia test, as percentage of light emission inhibition for the Microtox test and as percentage of cell viability inhibition for cytotoxicity tests.

Another series relates to Daphnia magna Straus. Kind of series: Daphnia acute toxicity test (ISO 6341: 2012). The class given is in vivo. Particulars: amoxicillin 90 μg·mL^−1; T0 (before metabolization by enzymes). The method, then:
as §2, §3

A further series deals with Vibrio fischeri. Particulars: 0 min, 80 μg·mL^−1. The method, then:
as §2, §3

The test system of series [3] is rat hepatoma cell line H4IIE.Luc. Description: Cytotoxicity test, Cell Viability Assay AlamarBlue. The class given is cell-based. Particulars: amoxicillin 80 μg·mL^−1; T0 (before metabolization by enzymes). How it is done:
as §2, §3

Series [4] can be described thus: Degradation of amoxicillin (100 μg/ml) in filtered tap water with HEPES by immobilized or free enzyme, UV absorbance every 24 hours. The class given is biochemical. The method, then: Once the Kaldnes carriers have been activated according to the above protocol, the enzymatic activity is measured. Two antibiotics present in an aqueous medium have been tested.
A sample of tap water, prealably filtered on a syringe filter unit (disposable pore size of 0.22 μm) and with HEPES (12.5 mM), and the antibiotics at a concentration of 100 μg/ml.
For comparison purposes, degradation of the antibiotic with the free enzyme will be tested. The sample of tap water, prealably filtered on a syringe filter unit (disposable pore size of 0.22 μm) and with HEPES (12.5 mM), and the antibiotics at a concentration of 100 μg·ml^−1, is prepared.
UV absorbance measurements are achieved to determine the evolution of the concentration of the antibiotics. […] The absorbance, and the thus the concentration, is determined every 24 hours.

Series [5] in a line: Storage of the Kaldnes carriers at 4° C., length of preservation of activity. The class given is physicochemical. How it is done: The biofunctionalized Kaldnes carriers, after being dried, have been kept in the fridge at 4° C. Antibiotics degradation tests were performed onto the carriers to measure the activity.
Where [6] appears, read: Kaldnes biochips, PGMA based layer, Tween 20 (5%), enzyme 1.985 mg.
[7] abbreviates: Kaldnes biochips, dopamine as layer precursor, no Tween 20, enzyme 1.985 mg.
Where [8] appears, read: enzyme in its free form 2 mg, no Tween 20.

Positions of bridges follow the written chain, without caps; N, C: chain ends. Non-standard residues stand in square brackets, D forms with d. Residues, ends and D or L forms follow the SMILES beside them. *: point of attachment. Ileψ(thiazoline)Cys = CC[C@H](C)[C@H](N)C1=N[C@H](C(=O)*)CS1; dOrn = NCCC[C@@H](N)C(=O)O

Take `CC[C@H]1OC(=O)[C@H](C)[C@@H](O[C@H]2C[C@@](C)(OC)[C@@H](O)[C@H](C)O2)[C@H](C)[C@@H](O[C@@H]2O[C@H](C)C[C@H](N(C)C)[C@H]2O)[C@](C)(O)C[C@@H](C)C(=O)[C@H](C)[C@@H](O)[C@]1(C)O` [erythromycin]: at NDM-1, the “degraded amount after 1 hour” value turned out to be 6.8 ± 2.3 µg. In addition, the “Autolysis of antibiotic after 1 hour” value in series [1] is 0 µg/mL.

Regarding `COc1cc(Cc2cnc(N)nc2N)cc(OC)c1OC` [trimethoprime], at NDM-1, the “degraded amount after 1 hour” value was determined as 2.5 ± 0.95 µg. In addition, the “Autolysis of antibiotic after 1 hour” value in series [1] was 0.01 µg/mL.

Take `CC1(C)S[C@@H]2[C@H](NC(=O)[C@H](N)c3ccc(O)cc3)C(=O)N2[C@H]1C(=O)O` [amoxicillin]: the “degraded amount after 1 hour” value at NDM-1 amounted to 10 ± 2 µg. The “Autolysis of antibiotic after 1 hour” value in series [1] is 0 µg/mL. Further, the results for the “Percentage of inhibition, Alga test” value in series [2] (0 min) and in series [2] (24 h) were 55 ± 6% and 0%, respectively. Moreover, the “Percentage of inhibition, Daphnia Test” value with Daphnia magna Straus is reported as 56 ± 4%. The “Percentage of inhibition, Microtox” value in the series on Vibrio fischeri worked out at 41 ± 12%. Further, the “Percentage of inhibition, Cell Viability Assay” value in series [3] was found to be 19 ± 5%.

As to `CC[C@H]1OC(=O)C[C@@H](O)[C@H](C)[C@@H](O[C@@H]2O[C@H](C)[C@@H](O[C@H]3C[C@@](C)(O)[C@@H](O)[C@H](C)O3)[C@H](N(C)C)[C@H]2O)[C@@H](CC=O)C[C@@H](C)C(=O)/C=C/C(C)=C/[C@@H]1CO[C@@H]1O[C@H](C)[C@@H](O)[C@@H](OC)[C@H]1OC` [tylosine], the “degraded amount after 1 hour” value on NDM-1 is 7.4 ± 1.1 µg. The “Autolysis of antibiotic after 1 hour” value in series [1] came to 0.01 µg/mL.

For the molecule `CC[C@H](C)[C@H](N)C1=N[C@H](C(=O)N[C@@H](CC(C)C)C(=O)N[C@H](CCC(=O)O)C(=O)N[C@H](C(=O)N[C@H]2CCCCNC(=O)[C@H](CC(N)=O)NC(=O)[C@@H](CC(=O)O)NC(=O)[C@H](Cc3cnc[nH]3)NC(=O)[C@@H](Cc3ccccc3)NC(=O)[C@H]([C@@H](C)CC)NC(=O)[C@@H](CCCN)NC2=O)[C@@H](C)CC)CS1` [bacitracin] ({Ileψ(thiazoline)Cys}-L[dE]IK[dOrn]I[dF]H[dD]N; lactam 4-C), at NDM-1, the “degraded amount after 1 hour” value was determined as 5 ± 0.8 µg. Moreover, the “Autolysis of antibiotic after 1 hour” value in series [1] came to 0 µg/mL.

Turning to `CCC[C@@H]1C[C@@H](C(=O)N[C@@H]([C@H]2O[C@H](SC)[C@H](O)[C@@H](O)[C@H]2O)[C@@H](C)O)N(C)C1` [lincomycin], the “degraded amount after 1 hour” value on NDM-1 turned out to be 5 ± 1.5 µg. In series [1], the “Autolysis of antibiotic after 1 hour” value was found to be 0.01 µg/mL.

Regarding `Cc1cc(NS(=O)(=O)c2ccc(N)cc2)no1` [sulfamethoxazole], the “degraded amount after 1 hour” value at NDM-1 was determined as 3.2 ± 0.8 µg. Besides, the “Autolysis of antibiotic after 1 hour” value in series [1] was found to be 0 µg/mL.

B1: NDM-1: New-Dehli metallo-β-lactamase 1, K. pneumoniae gene produced in E. coli BL21 2D3, used free or immobilized on Kaldnes biochips (protein, UniProt C7C422 29-270, looked up)
Metallo-beta-lactamase type 2: GEIRPTIGQQMETGDQRFGDLVFRQLAPNVWQHTSYLDMPGFGAVASNGLIVRDGGRVLVVDTAWTDDQTAQILNWIKQEINLPVALAVVTHAHQDKMGGMDALHAAGIATYANALSNQLAPQEGMVAAQHSLTFAANGWVEPATAPNFGPLKVFYPGPGHTSDNITVGIDGTDIAFGGCLIKDSKAKSLGNLGDADTEHYAASARAFGAAFPKASMIVMSHSAPDSRAAITHTARMADKLR
Regarding B1, the “Amount of degraded amoxicillin” value was found to be 3502 ± 191 µg in series [4] (setting [6]), 3021 ± 51 µg in series [4] (setting [7]) and 390 ± 45 µg in series [4] (setting [8]). Besides, the Duration of activity in series [4] (setting [6]) is reported as 22 days; in series [4] (setting [7]), 10 days; in series [4] (setting [8]) it was 4 days. Further, the “amount of amoxicillin degraded, immobilized versus free form” value in series [4] (Kaldnes carrier, Table V) is given as “about 8 times”. Moreover, the Length of preservation in series [5] (stored as Kaldnes + PGMA) amounted to 1 month; in series [5] (stored as Kaldnes + PGMA + enzyme), 2 months; in series [5] (stored as Kaldnes + PGMA + enzyme + Tween 20), 2 weeks; in series [5] (stored as Kaldnes + dopamine), 3 weeks; in series [5] (stored as Kaldnes + dopamine + enzyme), 1 month; in series [5] (stored as Kaldnes + dopamine + enzyme + Tween 20), 2 weeks.
